Results from patent US7786299B2, “Methods for treating diseases or conditions using dihydropteridinone compounds” (Boehringer Ingelheim Pharma GmbH & Co. KG, priority 2003, dated 2010).

Tests used:
H460-VINC = test: Cytotoxicity on H460-VINC cells (Table 1; method not given); format: cell-based; details: H460-VINC of Table 1; unit inferred
HeLaS3 cells = test: Measurement of cytotoxicity on cultivated human tumour cells (AlamarBlue); format: cell-based; details: HeLa in Table 1; unit inferred
Description: The activity of the compounds according to the invention was determined in the cytotoxicity test on cultivated human tumour cells and/or in a FACS analysis, for example on HeLaS3 cells.
Measurement of Cytotoxicity on Cultivated Human Tumour Cells
To measure the cytotoxicity on cultivated human tumour cells, cells of the cervical cancer tumour cell line HeLaS3 (obtained from American Type Culture Collection (ATCC)) in Ham's F12 Medium (Life Technologies) and 10% foetal calf serum (Life Technologies) were cultivated and harvested in the logarithmic growth phase. Then the HeLaS3 cells were placed in 96-well plates (Costar) at a density of 1000 cells per well and incubated overnight in an incubator (at 37° C. and 5% CO2), while on each plate 6 wells were filled only with medium (3 wells as a control of the medium, 3 wells for incubation with reduced AlamarBlue). The active substances were added to the cells in various concentrations (dissolved in DMSO; final concentration: 1%) (in each case as a triple measurement). After 72 hours' incubation, 20 μl of AlamarBlue (AccuMed International) were added to each well, and the cells were incubated for a further 7 hours. As a control, 20 μl of reduced Alamar Blue (AlamarBlue reagent which had been autoclaved for 30 min) were added to 3 wells. After 7 h incubation the colour change of the AlamarBlue reagent in the individual wells was determined in a Perkin Elmer fluorescence spectrophotometer (excitation 530 nm, emission 590 nm, slits 15, integrate time 0.1). The amount of AlamarBlue reagent reacted represents the metabolic activity of the cells. The relative cell activity was calculated as a percentage of the control (HeLa S3 cells without inhibitor) and the active substance concentration which inhibits the cell activity by 50% (IC^50) was obtained. The values were calculated from the average of three individual measurements, correcting for the control value (medium control).

| SMILES | IC50 (H460-VINC) [nM] | IC50 (HeLaS3 cells) [nM] |
| --- | --- | --- |
| COc1cc(C(=O)NC2CCC(N(C)C)CC2)ccc1Nc1ncc2c(n1)N(CCC(C)C)C(C)C(=O)N2C (centres unmarked) [Example 114] | 766 | 64 |
| COc1cc(C(=O)NC2CCN(C)CC2)ccc1Nc1ncc2c(n1)N(CC(C)C)C(C)(C)C(=O)N2C [Example 61] | 1040 | 65 |
| CCC1C(=O)N(C)c2cnc(Nc3ccc(C(=O)NC4CCC(N5CCOCC5)CC4)cc3OC)nc2N1C(C)C (centres unmarked) [Example 27] | 164 | 14 |
| CCC1C(=O)N(C)c2cnc(Nc3ccc(C(=O)NC4CCC(N(C)C)CC4)cc3OC)nc2N1C1CCCC1 (centres unmarked) [Example 23] | 679 | 13 |
| COc1cc(C(=O)NC2CCN(C)CC2)ccc1Nc1ncc2c(n1)N(CCC(C)C)C(C)(C)C(=O)N2C [Example 162] | 903 | 71 |
| COc1cc(C(=O)NC(C)(C)CN2CCCC2)ccc1Nc1ncc2c(n1)N(C1CCCCC1)[C@H](C)C(=O)N2C [Example 87] | 66 | 29 |
| COc1cc(C(=O)NC2CCC(N3CCN(CC4CC4)CC3)CC2)ccc1Nc1ncc2c(n1)N(C(C)C)C(C)C(=O)N2C (centres unmarked) [Example 112] | 345 | 75 |
| COc1cc(C(=O)NC2CCC(N3CCCCC3)CC2)ccc1Nc1ncc2c(n1)N(C1CCCC1)C(C)C(=O)N2C (centres unmarked) [Example 16] | 483 | 17 |
| COc1cc(C(=O)NC2CCN(Cc3ccccc3)CC2)ccc1Nc1ncc2c(n1)N(C1CCCCC1)C(C)C(=O)N2C (centres unmarked) [Example 115] | 76 | 16 |
| CCC1C(=O)N(C)c2cnc(Nc3ccc(C(=O)NC4CCC(N5CCOCC5)CC4)cc3OC)nc2N1C1CCCC1 (centres unmarked) [Example 133] | 75 | 11 |
| CCC1C(=O)N(C)c2cnc(Nc3ccc(C(=O)NC4CCN(C)CC4)cc3)nc2N1C1CCCC1 (centres unmarked) [Example 44] | 204 | 9 |
| CCC1C(=O)N(C)c2cnc(Nc3ccc(C(=O)NC(C)(C)CN4CCCC4)cc3OC)nc2N1C(C)C (centres unmarked) [Example 54] | 226 | 31 |
| CC[C@@H]1C(=O)N(C)c2cnc(Nc3ccc(C(=O)NC(C)(C)CN(C)C)cc3OC)nc2N1C1CCCC1 [Example 177] | 82 | – |
| COc1cc(C(=O)NC2CC(C)(C)N(C)C(C)(C)C2)ccc1Nc1ncc2c(n1)N(C1CCCC1)[C@H](C)C(=O)N2C [Example 30] | 574 | 12 |
| COc1cc(C(=O)NCCCN2CCOCC2)ccc1Nc1ncc2c(n1)N(C1CCCC1)C(C)C(=O)N2C (centres unmarked) [Example 63] | 206 | 81 |
| CCN1CCC(NC(=O)c2ccc(Nc3ncc4c(n3)N(C3CCCC3)C(C)C(=O)N4C)cc2)CC1 (centres unmarked) [Example 18] | 1760 | 40 |
| CCN1CCC(NC(=O)c2ccc(Nc3ncc4c(n3)N(C3CCCCC3)C(C)C(=O)N4C)c(OC)c2)CC1 (centres unmarked) [Example 119] | 438 | 8 |
| COc1cc(C(=O)NC2CCC(N3CCOCC3)CC2)ccc1Nc1ncc2c(n1)N(CCC(C)C)C(C)C(=O)N2C (centres unmarked) [Example 9] | 207 | 57 |
| CCC1C(=O)N(C)c2cnc(Nc3ccc(C(=O)NC4CCC(N5CCCCC5)CC4)cc3OC)nc2N1C(C)C (centres unmarked) [Example 129] | 646 | 35 |
| COc1cc(C(=O)NCC(C)(C)CN(C)C)ccc1Nc1ncc2c(n1)N(C1CCCC1)C(C1CC1)C(=O)N2C (centres unmarked) [Example 51] | 150 | 80 |
| COc1cc(C(=O)NC2CCN(C)CC2)ccc1Nc1ncc2c(n1)N(CC(C)(C)C)C(C)C(=O)N2C (centres unmarked) [Example 145] | ≥ 3000 | 43 |
| COc1cc(C(=O)NC2CCC(N3CCOCC3)CC2)ccc1Nc1ncc2c(n1)N(C1CCCCC1)C(C)C(=O)N2C (centres unmarked) [Example 130] | 91 | 15 |
| CCC1C(=O)N(C)c2cnc(Nc3ccc(C(=O)NC4CC(C)(C)N(C)C(C)(C)C4)cc3OC)nc2N1C1CCCC1 (centres unmarked) [Example 21] | 488 | 9 |
| COc1cc(C(=O)NC2CCN(C)CC2)ccc1Nc1ncc2c(n1)N(c1ccccc1)[C@H](C)C(=O)N2C [Example 41] | ≥ 3000 | 83 |
| CCC1C(=O)N(C)c2cnc(Nc3ccc(C(=O)NC4CCN(CC)CC4)cc3OC)nc2N1C1CCCC1 (centres unmarked) [Example 22] | 347 | 8 |
| C[C@@H]1C(=O)N(C)c2cnc(Nc3ccc(C(=O)NC4CC(C)(C)N(C)C(C)(C)C4)cc3)nc2N1C1CCCC1 [Example 31] | ≥ 3000 | 23 |
| CCC1C(=O)N(C)c2cnc(Nc3ccc(C(=O)NC4CCC(N5CCN(C)CC5)CC4)cc3OC)nc2N1C(C)C (centres unmarked) [Example 113] | 687 | 37 |

| SMILES | IC50 (H460-VINC) [nM] | IC50 (HeLaS3 cells) [nM] |
| --- | --- | --- |
| CCC1C(=O)N(C)c2cnc(Nc3ccc(C(=O)NC4CCC(N5CCOCC5)CC4)cc3OC)nc2N1C1CCCC1 (centres unmarked) [Example 131] | 101 | 23 |
| COc1cc(C(=O)NCC(C)(C)CN(C)C)ccc1Nc1ncc2c(n1)N(CC(C)(C)C)C(C)C(=O)N2C (centres unmarked) [Example 52] | 153 | 79 |
| CCC1C(=O)N(C)c2cnc(Nc3ccc(C(=O)NC4CCN(C)CC4)cc3OC)nc2N1C1CCCC1 (centres unmarked) [Example 46] | 208 | 12 |
| C[C@@H]1C(=O)N(C)c2cnc(Nc3ccc(C(=O)NC4CCN(C)CC4)cc3)nc2N1C1CCCCC1 [Example 85] | 754 | 25 |
| Cc1cc(C(=O)NC2CCN(C)CC2)ccc1Nc1ncc2c(n1)N(C1CCCCC1)[C@H](C)C(=O)N2C [Example 94] | 510 | 18 |
| CCN1CCC(NC(=O)c2ccc(Nc3ncc4c(n3)N(CC(C)(C)C)C(C)C(=O)N4C)cc2)CC1 (centres unmarked) [Example 11] | 1300 | 86 |
| COc1cc(C(=O)N[C@H]2CC[C@H](N3CCOCC3)CC2)ccc1Nc1ncc2c(n1)N(C1CCCC1)[C@H](C)C(=O)N2C [Example 40] | 187 | 38 |
| CC[C@@H]1C(=O)N(C)c2cnc(Nc3ccc(C(=O)NC(C)(C)CN(C)C)cc3OC)nc2N1C(C)C [Example 176] | 301 | – |
| CC[C@@H]1C(=O)N(C)c2cnc(Nc3ccc(C(=O)NCCCN4CCCCC4)cc3OC)nc2N1CCC(C)C [Example 169] | 503 | 44 |
| COc1cc(C(=O)NC2CC3CCC(C2)N3C)ccc1Nc1ncc2c(n1)N(C1CCCCC1)[C@H](C)C(=O)N2C (some centres unmarked) [Example 91] | 1780 | 41 |
| CCC1C(=O)N(C)c2cnc(Nc3ccc(C(=O)NC4CC5CCC(C4)N5C)cc3OC)nc2N1C1CCCC1 (centres unmarked) [Example 45] | 792 | 22 |
| COc1cc(C(=O)NC2CCN(Cc3ccccc3)CC2)ccc1Nc1ncc2c(n1)N(C1CCOCC1)C(C)C(=O)N2C (centres unmarked) [Example 181] | 754 | – |
| CC[C@@H]1C(=O)N(C)c2cnc(Nc3ccc(C(=O)NCCN4CCCC4)cc3OC)nc2N1CCC(C)C [Example 170] | 427 | 45 |
| COc1cc(C(=O)N[C@H]2CC[C@H](N3CCOCC3)CC2)ccc1Nc1ncc2c(n1)N(CCC(C)C)[C@H](C)C(=O)N2C [Example 38] | 278 | 87 |
| COc1cc(C(=O)NC2CCC(N3CCCCC3)CC2)ccc1Nc1ncc2c(n1)N(C1CCCCC1)C(C)C(=O)N2C (centres unmarked) [Example 126] | 742 | 51 |
| CCN1CCC(NC(=O)c2ccc(Nc3ncc4c(n3)N(CC(C)(C)C)C(C)C(=O)N4C)c(OC)c2)CC1 (centres unmarked) [Example 6] | 822 | 53 |
| COc1cc(C(=O)NC(C)(C)CN2CCCC2)ccc1Nc1ncc2c(n1)N(C1CCCC1)C(C)C(=O)N2C (centres unmarked) [Example 49] | 529 | 59 |
| CC[C@@H]1C(=O)N(C)c2cnc(Nc3ccc(C(=O)NCCC4CCCN4C)cc3OC)nc2N1CCC(C)C (some centres unmarked) [Example 167] | 817 | 34 |
| CC1C(=O)N(C)c2cnc(Nc3ccc(C(=O)NC4CCN(C)CC4)cc3)nc2N1c1ccccc1 (centres unmarked) [Example 48] | ≥ 3000 | 83 |
| COc1cc(C(=O)NCC(C)(C)CN(C)C)ccc1Nc1ncc2c(n1)N(CCC(C)C)C(C)(C)C(=O)N2C [Example 53] | 245 | 76 |
| COc1cc(C(=O)NC(C)(C)CN(C)C)ccc1Nc1ncc2c(n1)N(C1CCCC1)[C@H](C)C(=O)N2C [Example 175] | 296 | – |
| CC[C@@H]1C(=O)N(C)c2cnc(Nc3ccc(C(=O)NCCCN4CCOCC4)cc3)nc2N1CCC(C)C [Example 155] | – | 79 |
| CC[C@@H]1C(=O)N(C)c2cnc(Nc3ccc(C(=O)NCCN(CC)CC)cc3OC)nc2N1C(C)C [Example 74] | – | 43 |
| CCN(CC)CCNC(=O)c1ccc(Nc2ncc3c(n2)N(c2ccccc2)C(C)C(=O)N3C)c(OC)c1 (centres unmarked) [Example 59] | – | 95 |
| CCC1C(=O)N(C)c2cnc(Nc3ccc(C(=O)NCCN4CCCCC4)cc3)nc2N1CCC(C)C (centres unmarked) [Example 150] | – | 43 |
| CC[C@@H]1C(=O)N(C)c2cnc(Nc3ccc(C(=O)NCCCN4CCCC4)cc3OC)nc2N1CCC(C)C [Example 157] | – | 51 |
| CCC1C(=O)N(C)c2cnc(Nc3ccc(C(=O)NC4CCN(Cc5ccccc5)CC4)cc3OC)nc2N1C1CCCCC1 (centres unmarked) [Example 180] | 147 | – |
